Measurements published in paper PMC6461108, “A catalytic protein–proteomimetic complex: using aromatic oligoamide foldamers as activators of RNase S” (Chemical Science, 2019).
Values joined by “and” are separate entries in the source; they are usually repeats but may differ in a detail not shown here. Equal values may be shown once.

Experiments:
p53/hDM2 interaction = p53/hDM2 interaction (Homo sapiens, UniProt Q00987); test: Fluorescence anisotropy competition assay against p53/hDM2; type: binding; settings: FITC-p53 15-31 tracer; for IC50: 50 mM phosphate pH 7.5, 200 mM NaCl, 0.02 mg/mL BSA
Text: The calculation was run to generate 10 000 conformer sets, of which the lowest energy […]
in total) were retained for docking experiments. The lowest energy conformers belong to the same family of conformers and are well superimposed with the first lowest energy […]
protein (from 4YGW) and S-protein in complex with dApTpApApG (1RCN) using Glide XP method.11-13 All of the input ligands gave a pose in the S-protein binding groove. The […]
12, were refined using the induced fit docking against S-protein in complex with the oligonucleotide. Side chains of S-protein binding groove were automatically trimmed (based on B-factor) during docking calculation and restored for the final refinement.
The library of hybrid mimetics were docked as flexible ligands against the S-protein in complex with the oligonucleotide fragment using Glide XP (extra precision) method.11-13 […]
ligands against S-protein in complex with the oligonucleotide fragment using Glide XP method11-13 and refined using induced fit docking (Fig S7).
The fluorescein-labelled p5315-31–Flu 3,4 was purchased from peptide protein research Ltd.
Fluorescence anisotropy assays were performed in 384-well black plates (Greiner Bio-one). Each experiment was run in triplicate and fluorescence anisotropy was measured using a Perkin Elmer EnVisionTM 2103 MultiLabel plate reader. […]
For control wells in both assays, the tracer peptide was replaced with an identical volume of assay buffer. […] Plates were read after 1 h of incubation at room temperature. […]
The average anisotropy (across three experimental replicates) and the standard deviation of these values were then calculated and fit to a sigmoidal logistic model (Equation 3) using OriginPro 9.0 which provided the IC50 and error values. […]
UV absorbance analyses were recorded in a 1 mm path-length quartz cuvette on a Perkin Elmer Lambda 900 UV/VIS/NIR spectrometer.
High-resolution mass spectrometry (HRMS) data was recorded using electrospray ionization in positive mode (ESI+) with a Bruker MaXis Impact spectrometer. […]

S-protein [1] = biological target: T1, S-protein (Bos taurus, UniProt P61823); test: Isothermal titration calorimetry with S-protein; type: binding, bovine
T1 construct: S-protein22-124; host or cells: none: purchased RNase A digested with subtilisin, S-protein purified by RP-HPLC
T1 sequence (P61823 48-150): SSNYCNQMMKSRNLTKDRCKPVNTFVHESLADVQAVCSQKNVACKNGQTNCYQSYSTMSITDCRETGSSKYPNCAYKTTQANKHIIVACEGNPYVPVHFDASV

S-protein [2] = biological target: T1, S-protein; test: Native ESI-MS of S-protein complexes; type: binding, bovine
RNase S-protein [3] = biological target: T2, RNase S-protein (Bos taurus, UniProt P61823); test: Regulation of S-protein activity by hDM2 (RNA degradation assay); settings: hDM2 10 μM; 1a 100 μM or S-peptide 0.4 μM with S-protein
T2 sequence (P61823 47-150 limits assumed): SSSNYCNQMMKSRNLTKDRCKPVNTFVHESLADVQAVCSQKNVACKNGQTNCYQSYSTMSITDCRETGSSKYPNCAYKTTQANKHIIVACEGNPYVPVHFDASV

RNase S-protein [4] = biological target: T3, RNase S-protein (Bos taurus, UniProt P61823); test: Kinetics of RNA hydrolysis by S-protein with S-peptide or mimetic; settings: S-protein 0.05 µM, S-peptide 0.4 µM or 1a 100 µM
T3 sequence (P61823 48-150): T1 sequence (P61823 48-150)

RNase S-protein [5] = biological target: T3, RNase S-protein; test: RNA degradation assay (EtBr fluorescence), reactivation of S-protein; type: biochemical, bovine; parameters: S-protein22-124; host or cells: none: purchased RNase A digested with subtilisin, S-protein purified by RP-HPLC; settings: for % remaining fluorescence (100 µM): 100 µM compound, 0.05 µM S-protein, 45 min, 25 °C, Tris pH 6.5
[6] = S-protein titrated into mimetic, 37 °C

| Compound | IC50 (p53/hDM2 interaction) | Kd (S-protein [1]) [µM] | H (kcal/mol), ITC (S-protein [1]; [6]) [kcal/mol] | S (cal/molK), ITC (S-protein [1]; [6]) [cal/molK] | n (ITC stoichiometry) (S-protein [1]; [6]) | S-protein/mimetic complexes detected by native ESI-MS (S-protein [2]; 5-fold excess of mimetic (10 μM) relative to S-protein (2 μM)) | ternary complex in native MS competition with increasing S-peptide (S-protein [2]; S-protein and 1a constant, increasing S-peptide) | effect of added hDM2 on RNA hydrolysis (RNase S-protein [3]) | V0, average initial rate of RNA degradation (RNase S-protein [4]; CRNA 50) [g/mL/s] | V0, average initial rate of RNA degradation (RNase S-protein [4]; CRNA 75) [g/mL/s] | V0, average initial rate of RNA degradation (RNase S-protein [4]; CRNA 125) [g/mL/s] | V0, average initial rate of RNA degradation (RNase S-protein [4]; CRNA 200) [g/mL/s] | V0, average initial rate of RNA degradation (RNase S-protein [4]; CRNA 300) [g/mL/s] | V0, average initial rate of RNA degradation (RNase S-protein [4]; CRNA 425) [g/mL/s] | V0, average initial rate of RNA degradation (RNase S-protein [4]; CRNA 575) [g/mL/s] | % remaining fluorescence (100 µM) (RNase S-protein [5]) [%] | activity in RNA degradation assay at a single concentration (SAR set 1a-1d) (RNase S-protein [5]; single concentration, 20 µL of 1 mM stock in 200 µL) | competition with fluorescently labelled p53 peptide for hDM2 (p53/hDM2 interaction) |
| --- | --- | --- | --- | --- | --- | --- | --- | --- | --- | --- | --- | --- | --- | --- | --- | --- | --- | --- |
| CC(C)Oc1cc(NC(=O)[C@H](Cc2ccccc2)NC(=O)c2ccc(N)c(OCc3ccc(Cl)cc3)c2)ccc1C(=O)NCC(=O)O [Compound 1a] | 10.9 µM and ~10 µM | 1.85 ± 0.97 | -19.04 ± 1.90 | -35.2 | 0.089 and 0.1 | 1 : 1 complex and a lower intensity 1 : 2 S-protein/mimetic 1a complex could be detected | no ternary complex could be detected | suppressed | 0.016 ± 0.001 | 0.04 ± 0.004 | 0.088 ± 0.009 | 0.126 ± 0.011 | 0.168 ± 0.016 | 0.211 ± 0.032 | 0.254 ± 0.053 | 40 | active |  |
| CC(C)Oc1cc(NC(=O)[C@H](Cc2ccccc2)NC(=O)c2ccc(N)c(OCc3ccc4ccccc4c3)c2)ccc1C(=O)NCC(=O)O [Compound 4] | 8.1 ± 0.3 µM |  |  |  |  |  |  |  |  |  |  |  |  |  |  | 44 |  |  |
| Ac-KETAAAKFERQHMDS-NH2 [S-peptide, reference compound] |  | 0.13 ± 0.02 |  |  |  |  |  | no effect on catalysis | 0.057 ± 0.002 | 0.097 ± 0.004 | 0.159 ± 0.008 | 0.226 ± 0.011 | 0.296 ± 0.029 | 0.362 ± 0.037 | 0.431 ± 0.050 |  |  | did not compete |
